Source: patent US8071589B2, “Dihydrobenzoindazoles” (N. V. Organon, priority 2009, dated 2011)

target: T1, human FSH receptor (Homo sapiens, UniProt P23945); assay: Agonistic activity at the human FSH receptor expressed in CHO cells (CRE-luciferase reporter)
T1 sequence (P23945 18-695): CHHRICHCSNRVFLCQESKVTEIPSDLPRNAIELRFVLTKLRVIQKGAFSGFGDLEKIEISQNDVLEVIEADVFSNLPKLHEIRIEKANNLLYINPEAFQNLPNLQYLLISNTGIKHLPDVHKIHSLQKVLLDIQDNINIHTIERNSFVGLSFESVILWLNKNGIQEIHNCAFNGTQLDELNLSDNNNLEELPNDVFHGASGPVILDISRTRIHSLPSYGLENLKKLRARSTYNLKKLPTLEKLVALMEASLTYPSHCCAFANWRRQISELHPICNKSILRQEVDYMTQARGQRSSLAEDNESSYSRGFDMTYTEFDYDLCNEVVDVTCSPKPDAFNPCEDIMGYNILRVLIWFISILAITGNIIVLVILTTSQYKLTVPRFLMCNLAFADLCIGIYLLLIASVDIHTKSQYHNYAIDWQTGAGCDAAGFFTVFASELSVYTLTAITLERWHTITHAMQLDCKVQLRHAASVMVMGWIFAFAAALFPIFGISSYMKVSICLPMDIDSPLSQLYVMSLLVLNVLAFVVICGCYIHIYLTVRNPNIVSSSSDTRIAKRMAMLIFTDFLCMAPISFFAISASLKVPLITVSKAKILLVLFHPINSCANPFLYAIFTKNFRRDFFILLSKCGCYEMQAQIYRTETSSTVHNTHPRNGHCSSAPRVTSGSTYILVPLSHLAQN
From the text: The term EC50 means the concentration of the test compound that elicits half-maximal (50%) stimulation compared to the compound's maximally attainable effect. pEC50 is the negative log of EC50. The values can be determined e.g. in a cell line transfected with a FSH receptor gene and cotransfected with a cAMP responsive element/promoter directing the expression of a reporter gene. For the determination a software program such as MathIQ (version 2.0, ID Business Solutions Limited) can be used.
Agonistic activity of the compounds at the human FSH receptor was determined in Chinese Hamster Ovary (CHO) cells stably transfected with the human FSH receptor and cotransfected with a cAMP responsive element (CRE)/promotor directing the expression of a firefly luciferase reporter gene. […] Cells (7,500 cells/well of a 384 well plate) were incubated in Dulbecco' minimal essential F12 modified medium (Invitrogen), supplemented with 1 μg/ml bovine insulin, 5 μg/ml human apo-transferrin, 80 U/ml penicillin G and 80 μg/ml streptomycin with the test compounds (concentration between 0.0316 nM and 10.0 μM) in duplicate in a humidified atmosphere (95%) at 5-7% CO2 and 37° C. The final concentration of DMSO was 1%. After 4 hours of incubation, plates were allowed to adjust to room temperature for 1 hour. Then, Luclite (PerkinElmer) solution was added to the wells and cells were allowed to lyse for at least 1 hour at room temperature. Subsequently, luciferase activity was measured in a luminescence counter. The signal is expressed as counts per second (cps). The EC50 (concentration of the test compound that elicits half-maximal (50%) luciferase stimulation compared to the compound's maximally attainable effect) and efficacy values (maximal effect of the test compound as percentage of the maximal effect of recombinant human FSH) of the compounds were determined using the software program MathIQ (version 2.0, ID Business Solutions Limited).

Compound | EC50 [nM]
COc1cc2c(cc1OC(C)C)-c1c(c(C(=O)N3CCCN(C(=O)C4CCC4)CC3)nn1-c1ccsc1)CC2 [Example 2g, (4-(cyclobutanecarbonyl)-1,4-diazepan-1-yl)(8-isopropoxy-7-methoxy-1-(thiophen-3-yl)-4,5-dihydro-1H-benzo[g]indazol-3-yl)methanone] | < 100
COc1cc2c(cc1OC(C)C)-c1c(c(C(=O)N(C)C(C)(C)C)nn1-c1ccsc1)CC2 [Example 2h, N-tert-butyl-8-isopropoxy-7-methoxy-N-methyl-1-(thiophen-3-yl)-4,5-dihydro-1H-benzo[g]indazole-3-carboxamide] | < 100
COc1cc2c(cc1OC(C)C)-c1c(c(C(=O)N3CCCN(C(C)=O)CC3)nn1-c1ccc(F)cc1)CC2 [Example 3c, 1-(4-(1-(4-fluorophenyl)-8-isopropoxy-7-methoxy-4,5-dihydro-1H-benzo[g]indazole-3-carbonyl)-1,4-diazepan-1-yl)ethanone] | < 100
COc1cc2c(cc1OC(C)C)-c1c(c(C(=O)N3CCCN(C(=O)C4CCC4)CC3)nn1-c1ccc(F)cc1)CC2 [Example 3d, (4-(cyclobutanecarbonyl)-1,4-diazepan-1-yl)(1-(4-fluorophenyl)-8-isopropoxy-7-methoxy-4,5-dihydro-1H-benzo[g]indazol-3-yl)methanone] | < 100
COc1cc2c(cc1OC(C)C)-c1c(c(C(=O)N(C)C(C)(C)C)nn1-c1cccs1)CC2 [Example 5b, N-tert-butyl-8-isopropoxy-7-methoxy-N-methyl-1-(thiophen-2-yl)-4,5-dihydro-1H-benzo[g]indazole-3-carboxamide] | < 100
COc1cc2c(cc1-c1cccnc1)-c1c(c(C(=O)N(C)C(C)(C)C)nn1-c1ccccc1Cl)CC2 [Example 11gb, N-tert-butyl-1-(2-chlorophenyl)-7-methoxy-N-methyl-8-(pyridin-3-yl)-4,5-dihydro-1H-benzo[g]indazole-3-carboxamide] | < 100
